Reference: publication PMC6079014, “Calcium is an essential cofactor for metal efflux by the ferroportin transporter family” (Nature Communications, 2018)
Several values for one entry are separate records, joined by “and”; a condition that tells them apart may be missing. Equal entries are not always repeated.

Tests used:
human Fpn [1] = biological target: T1, human Fpn (Homo sapiens, UniProt Q9NP59); assay: Radiotracer metal efflux assay in Xenopus oocytes expressing human Fpn; assay type: cell-based; settings: 2 mM extracellular Ca2+ vs 0 mM Ca2+ plus 1 mM EGTA; 50 nl of 50 µM 65Zn injected
T1 construct: expressed in transfected cells; host or cells: Xenopus laevis oocytes injected with Fpn RNA
T1 sequence (Q9NP59 1-571): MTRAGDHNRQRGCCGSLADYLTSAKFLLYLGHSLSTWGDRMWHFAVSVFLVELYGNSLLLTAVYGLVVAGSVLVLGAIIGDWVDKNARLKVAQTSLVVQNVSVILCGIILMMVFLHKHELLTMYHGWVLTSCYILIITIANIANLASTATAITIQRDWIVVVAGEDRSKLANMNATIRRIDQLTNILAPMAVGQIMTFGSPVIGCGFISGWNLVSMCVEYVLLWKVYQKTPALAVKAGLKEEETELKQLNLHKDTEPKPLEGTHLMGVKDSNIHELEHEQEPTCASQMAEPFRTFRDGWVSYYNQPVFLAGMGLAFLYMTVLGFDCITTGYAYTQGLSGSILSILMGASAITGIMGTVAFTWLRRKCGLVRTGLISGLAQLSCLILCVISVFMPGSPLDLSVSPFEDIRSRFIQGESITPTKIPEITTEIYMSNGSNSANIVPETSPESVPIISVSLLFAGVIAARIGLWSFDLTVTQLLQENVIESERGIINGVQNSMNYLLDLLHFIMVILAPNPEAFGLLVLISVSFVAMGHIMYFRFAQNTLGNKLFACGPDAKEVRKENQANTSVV

BbFpn E203A = BbFpn E203A (Bdellovibrio bacteriovorus, UniProt Q6MLJ0, E203A); assay: Isothermal titration calorimetry, E203A BbFpn; assay type: binding, Bdellovibrio bacteriovorous
Chain of BbFpn E203A (Q6MLJ0 whole entry E203A): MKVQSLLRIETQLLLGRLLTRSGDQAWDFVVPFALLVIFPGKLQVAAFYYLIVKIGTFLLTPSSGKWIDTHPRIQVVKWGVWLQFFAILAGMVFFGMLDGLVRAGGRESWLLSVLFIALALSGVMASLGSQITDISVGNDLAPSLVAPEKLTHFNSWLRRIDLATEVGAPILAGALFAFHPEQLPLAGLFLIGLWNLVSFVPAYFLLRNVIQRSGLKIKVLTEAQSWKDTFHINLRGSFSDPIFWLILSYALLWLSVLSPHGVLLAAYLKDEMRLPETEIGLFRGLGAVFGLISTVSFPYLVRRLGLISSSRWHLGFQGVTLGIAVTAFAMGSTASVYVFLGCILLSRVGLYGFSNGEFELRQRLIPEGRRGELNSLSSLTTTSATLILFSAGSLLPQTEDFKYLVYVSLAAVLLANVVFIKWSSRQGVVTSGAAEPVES

human Fpn [2] = biological target: T1, human Fpn; assay: Radiotracer metal efflux assay in Xenopus oocytes expressing human Fpn; assay type: cell-based
Procedure: We performed laparotomy and ovariectomy on adult female Xenopus laevis frogs (Nasco, Fort Atkinson, WI) under 2-aminoethylbenzoate methanesulfonate anesthesia (0.2%, by immersion, to effect) following a protocol approved by the University of Cincinnati Institutional Animal Care and Use Committee. Ovarian tissue was isolated and treated for 3 h with […] collagenase A (Roche Diagnostics Corp., Indianapolis, IN) in calcium-free-modified Barths’ medium (MBM) of composition 88 mM NaCl, 1 mM KCl, 2.4 mM NaHCO3, 1.57 mM MgSO4, 0.66 mM NaNO3, 10 mM 4-(2-hydroxyethyl)-1-piperazineethanesulfonic acid (HEPES), buffered to pH 7.5 by using 2-amino-2-hydroxymethyl-propane-1,3-diol (Tris base). We isolated defolliculate stage V–VI oocytes stored at 17 °C in MBM of composition 88 mM NaCl, 1 mM KCl, 2.4 mM NaHCO3, 0.82 MgSO4, 0.75 mM CaCl2, 0.66 mM NaNO3, 10 mM HEPES, buffered to pH 7.5 by using Tris base, with 50 mg l^−1 ciprofloxacin. We expressed in Xenopus oocytes the 1A transcript form of human Fpn fused at its C-terminus with the enhanced green fluorescent protein (GFP) as described. Oocytes were injected with ∼50 ng of Fpn RNA and incubated for 4–6 days before being used in functional assays. Control oocytes were noninjected.
We measured metal efflux from oocytes expressing Fpn by using a radiotracer assay. Radiochemicals ^55Fe, ^45Ca, ^57Co, ^65Zn were obtained from Perkin-Elmer Life Science Products (Boston, MA) and ^63Ni from the National Isotope Development Center (Oak Ridge, TN). We used ^55Fe (added as FeCl3) at final specific activity 0.4–2.0 GBq mg^−1, ^45Ca (added as CaCl2) at final specific activity 0.5–0.9 GBq mg^−1, ^57Co (added as CoCl2) at final specific activity 1.6 GBq mg^−1, ^65Zn (added as ZnCl2) at final specific activity 0.2 GBq mg^−1, and ^63Ni (added as NiCl2) at final specific activity 0.6 GBq mg^−1. Oocytes were injected with 50 nl of 5 μM metal radionuclide (*M) in vehicle of composition 250 mM KCl, 5 mM nitrilotriacetic acid, trisodium salt, buffered to pH 7.0 with ∼4 mM 2-(N-morpholino)ethanesulfonic acid (MES) (GFS Chemicals, Columbus, OH). After injection, oocytes were briefly stored in ice-cold MBM (for 1–5 min) prior to the start of the efflux assay.
To initiate the efflux assay, we placed oocytes in standard efflux medium of composition 100 mM NaCl, 1 mM KCl, 2 mM CaCl2, 1 mM MgCl2, 0.5 mM bathophenanthroline disulfonic acid (BPS), 1 mM nitrilotriacetic acid (NTA) trisodium salt, 50 μg/ml apotransferrin (ApoTf) (R&D Systems Inc., Minneapolis, MN), buffered with 0–5 mM MES, and 0–5 mM N′,N′-diethylpiperazine to obtain pH 7.5, with the following exceptions. To prepare Ca^2+-free medium, we replaced 2 mM CaCl2 with 4 mM NaCl and added 1 mM ethylene glycol-bis(2-aminoethyl ether)-N,N,N′,N′-tetraacetic acid (EGTA). To prepare Mg^2+-free medium, we replaced […] MgCl2 with 4 mM NaCl and added 1 mM ethylenediaminetetraacetic acid (EDTA). To measure ^55Fe efflux as a function of extracellular [Ca^2+] over the range 0.1–20 mM Ca^2+ (Figs. 1c, 6b), we adjusted [NaCl] and [CaCl2] on a 2:1 molar basis without the addition of EGTA. Oocytes were then transferred individually in 200 µl of medium to flat-bottomed wells of a 96-well plate and incubated 30 min—within the linear phase of metal efflux[10] —at 23–27 °C with gentle rocking. To terminate efflux, we removed 150 µl of medium (0.75 × [N0–Nt]) from each well for liquid-scintillation counting in Ultima Gold liquid-scintillation cocktail (Perkin-Elmer, Waltham, MA). The corresponding oocytes were rinsed twice in ice-cold medium (without BPS), solubilized with 5% (w/v) sodium dodecyl sulfate, and counted (Nt). We fit our data for oocyte radiotracer content (N) over time (Eq. (1)) and obtained the first-order rate constant (k) for metal radionuclide (*M) efflux for individual oocytes. N0 and Nt are counts per min (cpm) in the oocyte at time = 0 and time = t, respectively.1 Nt=N0⋅exp(-k⋅t) […]

[3] = 2 mM extracellular Ca2+ vs 0 mM Ca2+ plus 1 mM EGTA

## [Ca+2] [Ca^2+, calcium]
Human Fpn [1]
  Effect of extracellular Ca2+ on Fpn-mediated 65Zn efflux: activated
BbFpn E203A
  Binding to E203A BbFpn by ITC (in words): complete loss
Human Fpn [2]
  EC50: 900 µM and 800 to 900 µM and 800 µM
Human Fpn [2]; [3]
  Dependence of Fpn-mediated 55Fe efflux on extracellular Ca2+: dependent
  Effect of extracellular Ca2+ on Fpn-mediated 57Co efflux: activated
  Effect of extracellular Ca2+ on Fpn-mediated 63Ni efflux: activated
Human Fpn [2]; oocytes injected with 45Ca
  45Ca efflux from oocytes expressing Fpn vs control: did not stimulate
